# Measured values as given in paper PMC12090182, “Repurposing of the RIPK1-Selective Benzo[1,4]oxazepin-4-one Scaffold for the Development of a Type III LIMK1/2 Inhibitor” (ACS Chemical Biology, 2025).
# How the values were obtained:
# Assay type in all cases: cell-based
# Conditions in all cases: HEK-293T; 1 μM inhibitor, HEK293T cells
# SIK3 FL = SIK3 FL (Homo sapiens, UniProt Q9Y2K2)
# Summary of the method: (§1)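 Using transiently transfected HEK293T cells, the inhibitor (1 μM) is tested for displacing Tracer K10 from each expressed kinase after 20 h expression. Luminescence at donor and acceptor wavelengths yields occupancy.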
# HIPK3 = HIPK3 (Homo sapiens, UniProt Q9H422)
# Summary of the method: as §1
# MAP3K10 = MAP3K10 (Homo sapiens, UniProt Q02779)
# Summary of the method: as §1
# STK10 = STK10 (Homo sapiens, UniProt O94804)
# Summary of the method: as §1
# MAP3K9 = MAP3K9 (Homo sapiens, UniProt P80192)
# Summary of the method: as §1
# NEK11 = NEK11 (Homo sapiens, UniProt Q8NG66)
# Sequence of NEK11 (Q8NG66 whole entry): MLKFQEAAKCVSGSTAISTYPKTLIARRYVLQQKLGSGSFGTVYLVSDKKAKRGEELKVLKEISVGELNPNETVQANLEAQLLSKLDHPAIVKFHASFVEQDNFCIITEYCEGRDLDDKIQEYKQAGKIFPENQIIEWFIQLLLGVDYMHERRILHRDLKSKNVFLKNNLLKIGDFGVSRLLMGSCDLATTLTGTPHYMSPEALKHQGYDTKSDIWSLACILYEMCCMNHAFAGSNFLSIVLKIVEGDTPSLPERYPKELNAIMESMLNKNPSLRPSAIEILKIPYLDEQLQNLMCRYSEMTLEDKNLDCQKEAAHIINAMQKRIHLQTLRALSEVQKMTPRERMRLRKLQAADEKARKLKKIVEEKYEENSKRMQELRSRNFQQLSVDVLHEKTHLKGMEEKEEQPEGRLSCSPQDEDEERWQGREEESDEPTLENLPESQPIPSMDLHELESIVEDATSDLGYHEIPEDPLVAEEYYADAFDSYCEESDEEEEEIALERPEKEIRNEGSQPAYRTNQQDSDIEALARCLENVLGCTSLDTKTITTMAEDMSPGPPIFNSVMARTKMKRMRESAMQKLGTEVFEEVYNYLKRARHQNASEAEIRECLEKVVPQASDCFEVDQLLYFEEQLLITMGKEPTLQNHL
# Summary of the method: as §1
# FES = FES (Homo sapiens, UniProt P07332)
# Summary of the method: as §1
# MAPK4 = MAPK4 (Homo sapiens, UniProt P31152)
# Sequence of MAPK4 (P31152 whole entry): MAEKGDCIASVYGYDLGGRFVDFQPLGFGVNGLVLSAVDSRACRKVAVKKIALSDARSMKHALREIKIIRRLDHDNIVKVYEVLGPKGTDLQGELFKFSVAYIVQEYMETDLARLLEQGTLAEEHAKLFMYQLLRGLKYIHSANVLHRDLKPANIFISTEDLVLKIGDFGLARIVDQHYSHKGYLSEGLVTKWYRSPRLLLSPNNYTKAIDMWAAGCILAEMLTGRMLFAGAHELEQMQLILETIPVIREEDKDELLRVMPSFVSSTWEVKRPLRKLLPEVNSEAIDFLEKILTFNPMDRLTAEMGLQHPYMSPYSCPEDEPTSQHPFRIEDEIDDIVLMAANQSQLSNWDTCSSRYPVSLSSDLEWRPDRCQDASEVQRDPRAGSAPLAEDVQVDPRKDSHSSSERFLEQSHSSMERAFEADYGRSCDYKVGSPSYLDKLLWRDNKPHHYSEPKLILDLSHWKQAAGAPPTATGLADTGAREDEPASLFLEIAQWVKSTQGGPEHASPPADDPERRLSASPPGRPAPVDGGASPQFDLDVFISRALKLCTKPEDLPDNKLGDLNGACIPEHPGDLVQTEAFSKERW
# Summary of the method: as §1
# WEE2 = WEE2 (Homo sapiens, UniProt P0C1S8)
# Summary of the method: as §1
# NLK = NLK (Homo sapiens, UniProt Q9UBE8)
# Sequence of NLK (Q9UBE8 whole entry): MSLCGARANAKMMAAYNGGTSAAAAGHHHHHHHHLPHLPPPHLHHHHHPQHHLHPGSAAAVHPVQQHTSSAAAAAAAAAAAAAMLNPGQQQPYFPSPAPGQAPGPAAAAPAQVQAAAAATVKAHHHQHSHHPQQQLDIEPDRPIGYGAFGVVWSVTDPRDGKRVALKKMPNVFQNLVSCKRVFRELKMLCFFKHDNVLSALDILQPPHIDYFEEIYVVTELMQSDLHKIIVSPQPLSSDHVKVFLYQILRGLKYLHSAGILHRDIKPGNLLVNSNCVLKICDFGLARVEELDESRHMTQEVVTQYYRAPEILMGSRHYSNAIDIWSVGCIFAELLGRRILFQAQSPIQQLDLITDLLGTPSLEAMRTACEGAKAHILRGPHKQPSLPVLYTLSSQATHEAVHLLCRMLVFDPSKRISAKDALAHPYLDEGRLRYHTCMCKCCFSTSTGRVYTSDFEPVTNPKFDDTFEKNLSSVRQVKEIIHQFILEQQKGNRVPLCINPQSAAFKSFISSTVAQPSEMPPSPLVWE
# Summary of the method: as §1
# TNK2(iso1) = TNK2(iso1) (Homo sapiens, UniProt Q07912)
# Summary of the method: as §1
# CDK3 = CDK3 (Homo sapiens, UniProt Q00526)
# Sequence of CDK3 (P24864 whole entry): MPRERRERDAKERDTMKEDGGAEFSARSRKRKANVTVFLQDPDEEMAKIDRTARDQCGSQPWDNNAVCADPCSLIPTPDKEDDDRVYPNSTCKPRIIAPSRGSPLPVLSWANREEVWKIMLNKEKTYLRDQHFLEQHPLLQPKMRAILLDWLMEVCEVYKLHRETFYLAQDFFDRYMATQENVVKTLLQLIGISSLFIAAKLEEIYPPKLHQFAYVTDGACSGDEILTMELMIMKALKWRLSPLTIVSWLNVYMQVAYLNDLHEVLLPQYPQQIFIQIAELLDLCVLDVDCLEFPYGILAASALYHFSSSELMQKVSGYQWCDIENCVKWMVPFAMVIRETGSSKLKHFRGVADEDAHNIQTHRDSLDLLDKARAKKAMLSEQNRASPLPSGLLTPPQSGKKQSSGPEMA
# Sequence of CDK3 (Q00526 whole entry): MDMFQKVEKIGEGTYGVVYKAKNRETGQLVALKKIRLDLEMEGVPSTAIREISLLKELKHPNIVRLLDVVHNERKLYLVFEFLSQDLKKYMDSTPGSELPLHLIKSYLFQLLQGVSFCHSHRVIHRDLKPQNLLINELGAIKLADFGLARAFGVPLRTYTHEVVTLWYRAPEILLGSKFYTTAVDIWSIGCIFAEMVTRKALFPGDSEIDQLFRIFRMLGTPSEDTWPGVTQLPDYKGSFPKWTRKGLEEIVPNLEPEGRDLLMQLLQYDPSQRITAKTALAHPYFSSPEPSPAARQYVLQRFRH
# Summary of the method: as §1
# ERN2 = ERN2 (Homo sapiens, UniProt Q76MJ5)
# Summary of the method: as §1
# SNRK = SNRK (Homo sapiens, UniProt Q9NRH2)
# Summary of the method: as §1
# MAP4K1 = MAP4K1 (Homo sapiens, UniProt Q92918)
# Summary of the method: as §1
# MAST4 = MAST4 (Homo sapiens, UniProt O15021)
# Summary of the method: as §1
# MYLK3 = MYLK3 (Homo sapiens, UniProt Q32MK0)
# Summary of the method: as §1
# CDK9 = CDK9 (Homo sapiens, UniProt P50750)
# Summary of the method: as §1
# CSNK1A1L = CSNK1A1L (Homo sapiens, UniProt Q8N752)
# Summary of the method: as §1
# HIPK2 = HIPK2 (Homo sapiens, UniProt Q9H2X6)
# Summary of the method: as §1
# LRRK2 = LRRK2 (Homo sapiens, UniProt Q5S007)
# Summary of the method: as §1
# ULK1 = ULK1 (Homo sapiens, UniProt O75385)
# Summary of the method: as §1
# MYLK4 = MYLK4 (Homo sapiens, UniProt Q86YV6)
# Summary of the method: as §1
# PRKCE = PRKCE (Homo sapiens, UniProt Q02156)
# Sequence of PRKCE (Q02156 whole entry): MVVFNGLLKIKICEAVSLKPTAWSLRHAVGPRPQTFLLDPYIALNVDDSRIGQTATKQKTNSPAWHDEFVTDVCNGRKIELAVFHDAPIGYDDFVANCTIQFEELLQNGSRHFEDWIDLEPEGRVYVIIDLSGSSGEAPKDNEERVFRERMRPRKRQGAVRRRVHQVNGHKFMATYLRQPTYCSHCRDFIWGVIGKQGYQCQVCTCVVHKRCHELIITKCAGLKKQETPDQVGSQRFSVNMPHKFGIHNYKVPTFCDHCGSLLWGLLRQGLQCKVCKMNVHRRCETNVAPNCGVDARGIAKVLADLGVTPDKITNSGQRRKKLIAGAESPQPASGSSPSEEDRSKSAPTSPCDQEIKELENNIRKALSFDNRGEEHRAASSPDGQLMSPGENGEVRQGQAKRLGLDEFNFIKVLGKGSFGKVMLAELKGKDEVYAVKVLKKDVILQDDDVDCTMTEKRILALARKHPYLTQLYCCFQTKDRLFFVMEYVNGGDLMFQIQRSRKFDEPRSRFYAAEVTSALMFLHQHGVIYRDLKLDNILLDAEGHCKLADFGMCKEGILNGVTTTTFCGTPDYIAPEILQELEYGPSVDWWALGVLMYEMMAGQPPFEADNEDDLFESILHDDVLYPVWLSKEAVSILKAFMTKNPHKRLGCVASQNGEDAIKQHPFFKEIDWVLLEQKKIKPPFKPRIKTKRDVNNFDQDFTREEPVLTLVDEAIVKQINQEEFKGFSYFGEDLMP
# Summary of the method: as §1
# RPS6KA6 = RPS6KA6 (Homo sapiens, UniProt Q9UK32)
# Summary of the method: as §1
# MARK4 = MARK4 (Homo sapiens, UniProt Q96L34)
# Summary of the method: as §1
# PLK3 = PLK3 (Homo sapiens, UniProt Q9H4B4)
# Summary of the method: as §1
# TIE1 = TIE1 (Homo sapiens, UniProt P35590)
# Sequence of TIE1 (P35590 22-1138): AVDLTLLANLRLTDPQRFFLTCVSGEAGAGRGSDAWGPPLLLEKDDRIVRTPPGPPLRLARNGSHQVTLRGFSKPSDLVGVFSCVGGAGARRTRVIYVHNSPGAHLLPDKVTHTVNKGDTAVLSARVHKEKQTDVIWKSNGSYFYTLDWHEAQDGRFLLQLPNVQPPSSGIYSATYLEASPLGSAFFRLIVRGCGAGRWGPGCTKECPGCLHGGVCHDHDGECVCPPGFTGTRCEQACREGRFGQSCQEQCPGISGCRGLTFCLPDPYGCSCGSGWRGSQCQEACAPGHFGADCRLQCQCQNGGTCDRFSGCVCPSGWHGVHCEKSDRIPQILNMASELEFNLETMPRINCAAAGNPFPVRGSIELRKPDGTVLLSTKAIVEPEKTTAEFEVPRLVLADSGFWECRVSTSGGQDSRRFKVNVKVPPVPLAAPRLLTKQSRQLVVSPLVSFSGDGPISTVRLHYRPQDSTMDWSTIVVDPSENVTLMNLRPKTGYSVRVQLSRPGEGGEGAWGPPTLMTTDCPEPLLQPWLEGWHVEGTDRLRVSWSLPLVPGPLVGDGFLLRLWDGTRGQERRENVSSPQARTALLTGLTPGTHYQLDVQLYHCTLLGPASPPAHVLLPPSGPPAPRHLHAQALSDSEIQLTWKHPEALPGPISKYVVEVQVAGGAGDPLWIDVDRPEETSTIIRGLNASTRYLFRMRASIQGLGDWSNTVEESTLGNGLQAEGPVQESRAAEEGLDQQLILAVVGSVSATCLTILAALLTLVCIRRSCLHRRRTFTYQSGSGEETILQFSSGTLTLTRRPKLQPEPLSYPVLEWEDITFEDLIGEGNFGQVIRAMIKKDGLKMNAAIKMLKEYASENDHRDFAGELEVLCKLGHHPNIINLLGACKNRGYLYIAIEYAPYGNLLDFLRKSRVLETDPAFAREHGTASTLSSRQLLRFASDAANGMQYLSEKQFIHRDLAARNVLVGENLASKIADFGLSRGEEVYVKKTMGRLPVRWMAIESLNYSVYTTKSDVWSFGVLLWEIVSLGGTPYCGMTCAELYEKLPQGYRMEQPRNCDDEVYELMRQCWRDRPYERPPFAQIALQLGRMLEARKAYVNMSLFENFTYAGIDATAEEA
# Summary of the method: as §1
# STK35 = STK35 (Homo sapiens, UniProt Q8TDR2)
# Sequence of STK35 (Q8TDR2 whole entry): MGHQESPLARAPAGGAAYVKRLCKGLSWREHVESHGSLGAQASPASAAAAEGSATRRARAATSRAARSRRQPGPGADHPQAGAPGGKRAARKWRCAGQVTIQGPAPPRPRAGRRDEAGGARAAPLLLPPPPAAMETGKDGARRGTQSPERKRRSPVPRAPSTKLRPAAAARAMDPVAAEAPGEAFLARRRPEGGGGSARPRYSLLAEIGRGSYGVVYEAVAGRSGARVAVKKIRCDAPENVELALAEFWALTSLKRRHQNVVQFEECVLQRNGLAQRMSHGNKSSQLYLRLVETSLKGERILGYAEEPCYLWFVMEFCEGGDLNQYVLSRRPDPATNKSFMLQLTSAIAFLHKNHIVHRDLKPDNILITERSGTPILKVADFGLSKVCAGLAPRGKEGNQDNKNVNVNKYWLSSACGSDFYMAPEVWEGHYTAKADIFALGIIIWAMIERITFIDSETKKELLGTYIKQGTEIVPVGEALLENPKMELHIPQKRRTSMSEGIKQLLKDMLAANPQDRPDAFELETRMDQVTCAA
# Summary of the method: as §1
# DAPK2 = DAPK2 (Homo sapiens, UniProt Q9UIK4)
# Summary of the method: as §1
# RPS6KA1 = RPS6KA1 (Homo sapiens, UniProt Q15418)
# Summary of the method: as §1
# IGF1R = IGF1R (Homo sapiens, UniProt P08069)
# Summary of the method: as §1
# NEK1 = NEK1 (Homo sapiens, UniProt Q96PY6)
# Summary of the method: as §1
# NEK9 = NEK9 (Homo sapiens, UniProt Q8TD19)
# Summary of the method: as §1
# ERN1 = ERN1 (Homo sapiens, UniProt O75460)
# Summary of the method: as §1
# DYRK1B = DYRK1B (Homo sapiens, UniProt Q9Y463)
# Summary of the method: as §1
# LATS1 = LATS1 (Homo sapiens, UniProt O95835)
# Summary of the method: as §1
compound,measurement,setting,value
"CN1C(=O)[C@@H](N2CCc3c(nn(Cc4ccccc4)c3C(N)=O)C2=O)COc2cc(Cl)ccc21 [Compound 10, (S)-2-benzyl-6-(8-chloro-5-methyl-4-oxo-2,3,4,5-tetrahydrobenzo[b][1,4]oxazepin-3-yl)-7-oxo-4,5,6,7-tetrahydro-2H-pyrazolo[3,4-c]pyridine-3-carboxamide]",receptor occupancy at 1 µM,SIK3 FL,-5.87%
same,receptor occupancy at 1 µM,HIPK3,11.8%
same,receptor occupancy at 1 µM,MAP3K10,3.06%
same,receptor occupancy at 1 µM,STK10,-3.32%
same,receptor occupancy at 1 µM,MAP3K9,8.3%
same,receptor occupancy at 1 µM,NEK11,10.1%
same,receptor occupancy at 1 µM,FES,3.15%
same,receptor occupancy at 1 µM,MAPK4,-10.7%
same,receptor occupancy at 1 µM,WEE2,-0.12%
same,receptor occupancy at 1 µM,NLK,5.94%
same,receptor occupancy at 1 µM,TNK2(iso1),4.21%
same,receptor occupancy at 1 µM,CDK3,-5.32%
same,receptor occupancy at 1 µM,ERN2,-5.4%
same,receptor occupancy at 1 µM,SNRK,7.74%
same,receptor occupancy at 1 µM,MAP4K1,3.49%
same,receptor occupancy at 1 µM,MAST4,-4.29%
same,receptor occupancy at 1 µM,MYLK3,3.25%
same,receptor occupancy at 1 µM,CDK9,-4.57%
same,receptor occupancy at 1 µM,CSNK1A1L,10.7%
same,receptor occupancy at 1 µM,HIPK2,16%
same,receptor occupancy at 1 µM,LRRK2,7.3%
same,receptor occupancy at 1 µM,ULK1,4.3%
same,receptor occupancy at 1 µM,MYLK4,-2.91%
same,receptor occupancy at 1 µM,PRKCE,3.9%
same,receptor occupancy at 1 µM,RPS6KA6,7.04%
same,receptor occupancy at 1 µM,MARK4,8.31%
same,receptor occupancy at 1 µM,PLK3,2.41%
same,receptor occupancy at 1 µM,TIE1,-1.51%
same,receptor occupancy at 1 µM,STK35,1.56%
same,receptor occupancy at 1 µM,DAPK2,-5.62%
same,receptor occupancy at 1 µM,RPS6KA1,5.2%
same,receptor occupancy at 1 µM,IGF1R,-7.01%
same,receptor occupancy at 1 µM,NEK1,8.46%
same,receptor occupancy at 1 µM,NEK9,3.71%
same,receptor occupancy at 1 µM,ERN1,-1.52%
same,receptor occupancy at 1 µM,DYRK1B,-4.33%
same,receptor occupancy at 1 µM,LATS1,-16%
